Data set [1] addresses T1, abscisic acid 8′-hydroxylase CYP707A3 (Arabidopsis thaliana, UniProt Q9FH76).
T1 sequence (Q9FH76 1-463): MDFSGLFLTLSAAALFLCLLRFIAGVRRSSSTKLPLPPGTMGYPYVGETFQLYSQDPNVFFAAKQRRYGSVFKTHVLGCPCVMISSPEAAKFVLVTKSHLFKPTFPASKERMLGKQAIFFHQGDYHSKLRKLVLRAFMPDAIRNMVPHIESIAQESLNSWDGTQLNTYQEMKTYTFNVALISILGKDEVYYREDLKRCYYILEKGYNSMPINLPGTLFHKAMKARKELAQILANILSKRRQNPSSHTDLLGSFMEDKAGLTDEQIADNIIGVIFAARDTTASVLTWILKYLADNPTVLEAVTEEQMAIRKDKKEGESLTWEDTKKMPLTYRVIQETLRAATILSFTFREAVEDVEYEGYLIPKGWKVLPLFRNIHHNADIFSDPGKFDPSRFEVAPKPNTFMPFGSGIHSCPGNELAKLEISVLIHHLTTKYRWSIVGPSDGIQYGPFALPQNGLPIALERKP
Briefly: Abscisic acid 8′-hydroxylase CYP707A3 inhibition test. The note with it: CYP707A3 + NADPH-P450 reductase ATR1, substrate ABA, 30° C. 10 minutes; IC50 calculated from two concentrations. It counts as biochemical. The procedure:
In a 1.5 mL microtube, 10 μL of a solution of substrate 250 μM ABA in potassium/phosphate buffer (KPB), 5 μL of a solution of the sample in dimethylformamide, 435 μL of KPB and 40 μL of abscisic acid 8′-hydroxylase CYP707A3+NADPH-P450 reductase ATR1 were put and heated at 30° C. for 10 minutes. 10 μL of a solution of 5 mg/mL NADPH in KPB was added thereto thereby starting the enzyme reaction. The reaction was carried out at 30° C. for 10 minutes at a rotation speed of 1000 rpm, and 25 μL of an aqueous solution of 1 M sodium hydroxide was added thereto thereby terminating the reaction. The reaction solution was allowed to stand at 4° C. for 30 minutes and subsequently 50 μL of 1 M hydrochloric acid was added thereto to convert the enzyme metabolite to phaseic acid (PA). The enzyme reaction solution was subjected to an OASIS HLB cartridge (1 cc, 30 mg; washed with 1 mL of methanol (1% acetic acid) and equilibrated with 1 mL of water (1% acetic acid)) and washed with 1 mL of 10% methanol/water (1% acetic acid) thereby eluting phaseic acid with 1 mL of methanol (1% acetic acid). The eluate was concentrated under reduced pressure (toluene was added to azeotrope acetic acid), the obtained substance was dissolved in 50 μL of methanol. 20 μL of the solution was subjected to HPLC (column, YMC-Pack Hydrosphere C18 (6 mm inner diameter×150 mm length); flow rate 1 mL/min; detection 254 nm) analysis. The CYP707A3 inhibition rate of the samples was calculated in accordance with the following formula (3). Note that dimethylformamide was used for the control in place of the sample solution. Each sample was tested with two different concentrations to calculate the 50% inhibition concentration (IC50) based on the enzyme inhibition rates thereof The results are shown in Table 1.
Enzyme inhibition rate (%)={1-(PA peak area of each sample/PA peak area of control)}×100 . . . (3)

For data set [2], the target named is T2, ent-kaurene oxidase CYP701A6 (Oryza sativa subsp. japonica, UniProt Q5Z5R4).
T2 sequence (Q5Z5R4 1-505): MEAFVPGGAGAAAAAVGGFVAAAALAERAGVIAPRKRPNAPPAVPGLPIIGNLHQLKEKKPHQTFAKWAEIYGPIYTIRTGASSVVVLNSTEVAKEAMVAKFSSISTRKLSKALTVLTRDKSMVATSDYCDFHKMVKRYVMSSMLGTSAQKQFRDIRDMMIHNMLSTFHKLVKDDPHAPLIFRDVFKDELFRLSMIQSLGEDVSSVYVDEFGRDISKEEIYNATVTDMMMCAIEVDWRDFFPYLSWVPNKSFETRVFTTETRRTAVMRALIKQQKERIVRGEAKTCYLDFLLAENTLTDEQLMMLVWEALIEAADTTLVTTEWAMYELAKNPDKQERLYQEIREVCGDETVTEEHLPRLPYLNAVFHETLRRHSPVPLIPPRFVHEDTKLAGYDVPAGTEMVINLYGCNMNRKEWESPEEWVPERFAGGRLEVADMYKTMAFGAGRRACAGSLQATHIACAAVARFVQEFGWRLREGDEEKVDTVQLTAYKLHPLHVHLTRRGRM
Briefly: Ent-kaurene oxidase CYP701A6 inhibition test. It counts as biochemical. The note with it: CYP701A6 + NADPH-P450 reductase ATR2, substrate ent-kaurene, 30° C. 30 minutes; IC50 calculated from two concentrations. The procedure:
To a 1.5 mL microtube, 8 μL of an aqueous solution of 500 μM ent-kaurene as a substrate in 45% cyclodextrin and 8μL of a solution of the sample in dimethylformamide were put. 10 μL of 2.32 μM ent-kaurene oxidase CYP701A6 and 10 μL of 4.6 unit/mL NADPH-P450 reductase ATR2, heated at 30° C. for 5 minutes in advance, were added thereto. 304 μL of ultra-pure water, 40 μL of 500 mM KPB and 20 μL of an aqueous solution of 20 mM NADPH, heated at 30° C. for 10 minutes in advance, were added thereto thereby starting the enzyme reaction. The reaction was carried out at 30° C. for 30 minutes at a rotation speed of 1000 rpm and 100 μL of 1 M hydrochloric acid was added thereto thereby terminating the reaction. 5 μL of 10 μM abietic acid as the internal standard was added thereto, and the solution was extracted with 400 μL of ethyl acetate. The resultant was dried over sodium sulfate and subsequently concentrated under reduced pressure. 50 μL of methanol and 5 μL of 2 M trimethyl silyldiazomethane were added thereto to methylate carboxylic acid and the resultant was thy-solidified using nitrogen. The solidified product was dissolved in 150 μL of hexane and 1 μL of the resultant solution was subjected to a GC-MS analysis to detect the enzyme metabolite ent-kaurene acid. The CYP701A6 inhibition rate of the samples was calculated in accordance with the following formula (4). Note that the peak area of ent-kaurene acid was calculated from the peak area of m/z 273 and that ent-kaurene acid was identified from the area ratio of m/z 257, 213. The peak area of abietic acid was calculated from the area of m/z 256, and abietic acid was identified from the area ratio of m/z 316. Note that dimethylformamide was used for the control in place of the sample solution. Each sample was tested with two different concentrations to act late the 50% inhibition concentration (IC50) based on the enzyme inhibition rates thereof.
Enzyme inhibition rate (%)={1-(Ent-kaurene acid peak area of each sample/Abietic acid peak area of each sample/(Ent-kaurene acid peak area of control/Abietic acid peak area of control }×100 . . . (4)

The subject of data set [3] is seeds of thale cress (Arabidopsis thaliana, Col-0). Briefly: Thale cress seed germination inhibition test (2). Type of data set: in vivo. The note with it: 120 hours after seed plantation (FIG. 3). The procedure:
Seeds of thale cress (Arabidopsis thaliana, Col-0) were immersed in […] an aqueous solution of 70% ethanol for 30 minutes, subsequently in 500 μL of 100% ethanol for 1 minute, washed three times in 1 mL of distilled water, then immersed in distilled water and, in a dark place, verbalized at 4° C. for 3 days. A solution of the sample in methanol and a solution of ABA in methanol were put in a 1.5 mL microtube, and methanol was removed therefrom under reduced pressure. An aqueous solution of 0.5% agar (containing 1/2 MS medium inorganic salts) at 70° C. was added thereto, followed by stirring the resultant. The obtained solution was placed in a 96-well plate to provide the medium containing the sample. 20 to 30 vernalized seeds of thale cress were planted in each well and cultured at 22° C. under continuous light to monitor the number of seeds germinated over time. The germination rate was calculated in accordance with the following formula (1). Note that the medium prepared using methanol in the same manner as above was used as an untreated control and a germination rate of 100% was achieved 72 hours later from the seed plantation. Germination rates 72 hours later from the seed plantation are shown in FIG. 1 and initial growth conditions of thale cress 120 hours later are shown in FIG. 2.
Germination rate (%)=Number of seeds germinated/Number of seeds planted×100 . . . (1) […]

Turning to `CCCCOCCOCCOCc1cn(-c2ccc(/C=C(\C(O)C(C)(C)C)n3cncn3)cc2)nn1` (single isomer, unassigned) [Comparative Example 1 (+) Form, 1-(4-(4-((2-(2-butoxyethoxy)ethoxy)methyl)-1H-1,2,3-triazol-1-yl)phenyl)-4,4-dimethyl-2-(1H-1,2,4-triazol-1-yl)pent-1-en-3-ol, reference compound], the potency estimated from few doses is 1100 nM in data set [1] and 1300 nM in data set [2].

With `CCCCOCCOCCOCc1cn(-c2ccc(/C=C(\C(O)C(C)(C)C)n3cncn3)cc2)nn1` (single isomer, unassigned) [Comparative Example 1 (−) Form, 1-(4-(4-((2-(2-butoxyethoxy)ethoxy)methyl)-1H-1,2,3-triazol-1-yl)phenyl)-4,4-dimethyl-2-(1H-1,2,4-triazol-1-yl)pent-1-en-3-ol, reference compound], the potency estimated from few doses in data set [1] was 54 nM; in data set [2] it was 1200 nM.

As for `COCCOCCOCCOCC#Cc1cccc(/C=C(\C(O)C(C)(C)C)n2cncn2)c1` (single isomer, unassigned) [Example 1 (+) Form, (E)-1-(3-(2,5,8,11-tetraoxatetradec-13-yn-14-yl)phenyl)-4,4-dimethyl-2-(1H-1,2,4-triazol-1-yl)pent-1-en-3-ol], the potency estimated from few doses in data set [1] was 1200 nM; in data set [2], 1600 nM.

Turning to `CCCCOCCOCCOCC#Cc1cccc(/C=C(\C(O)C(C)(C)C)n2cncn2)c1` (single isomer, unassigned) [Example 2 (+) Form, (E)-1-(3-(3-(2-(2-butoxyethoxy)ethoxy)prop-1-yn-1-yl)phenyl)-4,4-dimethyl-2-(1H-1,2,4-triazol-1-yl)pent-1-en-3-ol], the potency estimated from few doses was 240 nM in data set [1] and 120 nM in data set [2].

In the case of `CCCCOCCOCCOCC#Cc1cccc(/C=C(\C(O)C(C)(C)C)n2cncn2)c1` (single isomer, unassigned) [Example 2 (−) Form, (E)-1-(3-(3-(2-(2-butoxyethoxy)ethoxy)prop-1-yn-1-yl)phenyl)-4,4-dimethyl-2-(1H-1,2,4-triazol-1-yl)pent-1-en-3-ol], the “seed germination inhibition compared with (−) form of Comparative Example 1” value in data set [3] is listed as “can inhibit the seed germination even in lower concentrations”. In addition, the potency estimated from few doses in data set [1] is 12 nM; in data set [2], 62 nM.

Regarding `COCCOCCOCCOCC#Cc1ccc(/C=C(\C(O)C(C)(C)C)n2cncn2)cc1` (single isomer, unassigned) [Example 3 (+) Form, (E)-1-(4-(2,5,8,11-tetraoxatetradec-13-yn-14-yl)phenyl)-4,4-dimethyl-2-(1H-1,2,4-triazol-1-yl)pent-1-en-3-ol], the potency estimated from few doses is 7700 nM in data set [1] and 17000 nM in data set [2].

On to `COCCOCCOCCOCC#Cc1ccc(/C=C(\C(O)C(C)(C)C)n2cncn2)cc1` (single isomer, unassigned) [Example 3 (−) Form, (E)-1-(4-(2,5,8,11-tetraoxatetradec-13-yn-14-yl)phenyl)-4,4-dimethyl-2-(1H-1,2,4-triazol-1-yl)pent-1-en-3-ol], for which the figures for the potency estimated from few doses in data set [1] and in data set [2] were 1500 nM and 8600 nM, respectively.

Regarding `CCCCOCCOCCOCC#Cc1ccc(/C=C(\C(O)C(C)(C)C)n2cncn2)cc1` (single isomer, unassigned) [Example 4 (+) Form], the figures for the potency estimated from few doses in data set [1] and in data set [2] were 1000 nM and 1500 nM, respectively.

As to `CCCCOCCOCCOCC#Cc1ccc(/C=C(\C(O)C(C)(C)C)n2cncn2)cc1` (single isomer, unassigned) [Example 4 (−) Form], the potency estimated from few doses in data set [1] is 200 nM; in data set [2] it was 770 nM.
